Results from PMC12062019, “Therapeutic effects of medicinal and food-based traditional herbal couples on type 2 diabetes mellitus based on pharmacodynamics and pharmacokinetics” (Frontiers in Pharmacology, 2025).

Columns and labels:
[1] = set-up: method as in Wang et al., 2020; conditions: poor lipid and water solubility; ref Wang et al., 2020; cited from earlier work
Caco-2 cells = assay: CCK-8 cell viability, Caco-2; conditions: Caco-2, 24 h, concentrations up to 65 μg/mL
Procedure: (§1) HT29 cells were grown in McCoy’s 5A medium containing 10% fetal bovine serum, 1% non-essential amino acids, and 1% penicillin-streptomycin, and other conditions were the same as those for Caco-2 cells culture, with the medium being changed every other day. […] They were incubated at 37°C for 24 h to allow cell adhesion. […] After this, the medium was removed and the cells were co-incubated with 10 μL of CCK-8 solution for 4 h. The absorbance values (OD) were measured at 450 nm using a SpectraMax 190 Enzyme Marker. The blank group consisted of wells that were not inoculated with cells, and the control group included wells containing cells but not exposed to the sample solution. Each group was performed in six replicates. Cell viability was calculated using the following formula: Cell activity%=Experimental Group OD value−Blank Group OD value/Control Group OD value−Blank Group OD value×100%

HT29 cells = assay: CCK-8 cell viability, HT29; conditions: HT29, 24 h, concentrations up to 65 μg/mL
Procedure: as §1

gut flora of rats = assay: 16s rDNA sequencing of gut flora of rats; assay type: in vivo, rat; conditions: T2DM rats
T2DM rats = assay: Blood glucose and body weight in high-fat diet/STZ-induced T2DM rat model; assay type: in vivo; conditions: gavage once daily, weight first decreased then increased
Procedure: The T2DM rat model was developed by intraperitoneal injection of streptozotocin (STZ). 60 male SD rats were acclimatised and reared for 1 week, then blood glucose and body weight were measured, and the rats were randomly divided into 10 in the normal group and 50 in the modelling group according to blood glucose and body weight. The T2DM rat was fed with high-fat chow for 4 weeks, and at the end of the 4 weeks, the rats were fasted for 12 h without food or water, and were injected with a one-time intraperitoneal injection of 35 mg/kg of 1% STZ solution. The normal group was fed with normal chow, and was given free access to drinking water, and was injected intraperitoneally with the same dose of citrate-sodium citrate buffer as that of the T2DM rat. The blood was collected from the tail vein for fasting blood glucose (FBG) measurement after 72 h. FBG of 16.7 mmol/L was considered successful in T2DM model replication. The T2DM rat model was successfully replicated.
For better drug delivery, we used a rotary evaporator to concentrate the CR-PLR decoction, CR decoction and PLR decotion to crude drug (1 g/mL), respectively. […]

[2] = Genus level, compared to the model group

O=c1c(-c2ccc(O)cc2)coc2c([C@@H]3O[C@H](CO)[C@@H](O)[C@H](O)[C@H]3O)c(O)ccc12 [PUR, Puerarin]
BCS classification system class [1]: class IV | relative cell viability (Caco-2 cells): above 90% | relative cell viability (HT29 cells): above 90%

CN(C)C(=N)N=C(N)N [metformin]
percentage of Lachnospiraceae flora (gut flora of rats; Family level): 8.91% | percentage of Lactobacillaceae flora (gut flora of rats; Family level): 8.88% | percentage of Ruminococcaceae flora (gut flora of rats; Family level): 9.47% | percentage of Ligilactobacillus flora (gut flora of rats; Genus level): 3.69% | percentage of lactobacilli flora (gut flora of rats; Genus level): 4.68% | percentage of Akkermansia flora (gut flora of rats; [2]): increased | percentage of Ruminococcus flora (gut flora of rats; [2]): increased | number of independent OTUs (gut flora of rats; gut flora, Venn plot): 2051 | weeks of administration after which body weight increased (T2DM rats): 4 weeks
